US5721240A, “9-substituted-8-unsubstituted-9-deazaguanines” (BioCryst Pharmaceuticals, Inc., priority 1996, dated 1998)
Where two headings read alike, the source gives them in different places. Values belong to the compound of their own block, whether it stands above or below them.

Tests used:
[1] = target: T1, PNP (Calf spleen) (Bos taurus, UniProt P55859); assay: in vitro PNP inhibition assay (radiochemical, [14C]-hypoxanthine formation from [14C]-inosine); type: biochemical
T1 construct: using calf spleen as the enzyme source; from tissue; host or cells: calf spleen
T1 sequence (P55859 1-289): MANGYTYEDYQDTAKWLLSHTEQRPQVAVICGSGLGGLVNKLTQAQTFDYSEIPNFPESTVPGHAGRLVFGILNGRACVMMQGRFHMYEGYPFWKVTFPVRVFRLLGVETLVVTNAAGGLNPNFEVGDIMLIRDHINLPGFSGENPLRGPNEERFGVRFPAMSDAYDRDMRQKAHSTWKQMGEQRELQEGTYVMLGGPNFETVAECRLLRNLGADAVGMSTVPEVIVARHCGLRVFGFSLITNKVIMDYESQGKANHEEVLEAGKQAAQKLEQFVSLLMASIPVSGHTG

[2] = system: CCRF-CEM Cells; assay: 2'-deoxyguanosine potentiation assay (cell growth inhibition of CCRF-CEM cells with d-Guo); type: cell-based; conditions: Homo sapiens, + 2'-d-Guanosine 5.62 uM, 72 hours
Experimental: The potentiation of the cell growth inhibitory activity (cytotoxicity) of 2'-deoxyguanosine (d-Guo) by the compounds of the invention is determined as follows: CCRF-CEM cells are grown in RPMI-1640 medium. To suspension cultures of these cells, d-Guo at a fixed concentration (5.62 μM) and the candidate PNP inhibitor at varied concentrations are added and the number of cells are determined in a Coulter counter 24, 48, and 72 hours thereafter. […] This method is similar to that previously used to determine the effectiveness of PNP inhibitors on potentiation of the toxicity of d-Guo [D. A. Shewach et al., Cancer Res., 46, 519 (1986); J. C. Sircar et al., Agents and Actions, 21, 253 (1987)].

[3] = system: plasma inosine; assay: Effects on blood plasma levels of inosine in rats; type: in vivo, Lewis rats; conditions: i.p.; for Inosine Concentration: rat, 4 mg/kg
Experimental: An effective method of evaluating in vivo effects of PNP inhibitors is to evaluate the level of plasma nucleosides following the administration of inhibitor. In particular, it has been shown that certain PNP inhibitors, which increase blood plasma levels of inosine, were subsequently found to prolong skin allograf survival.
Control groups are used which receive only the vehicle. At specific times after administration, the animals are sacrificed and plasma samples are prepared. The plasma is extracted with cold 0.5 N HClO4 and neutralized with solid NH4 HCO3. After removal of perchlorate salts, the extract is subjected to HPLC on a reversed phase column (Spherisorb ODSI).

[4] = 8-unsubstituted compounds, calf spleen enzyme, 50 mM phosphate, read-out: PNP (Calf spleen) IC50
[5] = read-out: PNP (Calf spleen) IC50
[6] = 8-amino-substituted comparison compounds

SMILES: Nc1nc2c(Cc3cccc(Cl)c3)c[nH]c2c(=O)[nH]1 [Example 1, 2-amino-3,5-dihydro-7-(3-chlorophenylmethyl)-4H-pyrrolo[3,2d-]pyrimidin-4-one]
IC50 [1]: 140 nM
IC50 ([2]; 8-unsubstituted compounds): 800 nM

SMILES: Nc1nc2c(Cc3ccccc3)c[nH]c2c(=O)[nH]1 [Example 2c, 2-Amino-3,5-dihydro-7-(phenylmethyl)-4H-pyrrolo-[3,2-d]pyrimidin-4-one]
IC50 ([2]; 8-unsubstituted compounds): 600 nM
increase in plasma inosine ([3]; Lewis rats, summary in words): significant increase in plasma inosine
Inosine Concentration ([3]; 0.50 hrs, Exp 1): 3 μMO
Inosine Concentration ([3]; 0.50 hrs, Exp 3): 10 μMO
Inosine Concentration ([3]; 1.0 hrs, Exp 1): 7 μMO
Inosine Concentration ([3]; 1.0 hrs, Exp 3): 7 μMO
Inosine Concentration ([3]; 1.5 hrs, Exp 3): 6 μMO
Inosine Concentration ([3]; 1.5 hrs, Exp 7, listed as SRI 7109, 4 mg/kg): 6 μMO
Inosine Concentration ([3]; 2.0 hrs, Exp 3): 4 μMO
Inosine Concentration ([3]; 3.0 hrs, Exp 1): 4 μMO
Inosine Concentration ([3]; 3.0 hrs, Exp 3): 6 μMO
Inosine Concentration ([3]; 3.0 hrs, Exp 7, listed as SRI 7109, 4 mg/kg): 6 μMO
Inosine Concentration ([3]; 4.0 hrs, Exp 2): 3 μMO
Inosine Concentration ([3]; 5.0 hrs, Exp 2): 2 μMO
Inosine Concentration ([3]; 6.0 hrs, Exp 2): 0.5 μMO
Inosine Concentration ([3]; 8.0 hrs, Exp 2): 0.6 μMO
Inosine Concentration ([3]; 10.0 hrs, Exp 2): 0.3 μMO
Inosine Concentration ([3]; 24 hrs, Exp 1): 0.3 μMO

SMILES: Nc1nc2c(Cc3ccc(Cl)cc3)c[nH]c2c(=O)[nH]1 [Example 2d, 2-Amino-3,5-dihydro-7-(4-chlorophenylmethyl)-4H-pyrrolo[3,2-d]pyrimidin-4-one]
IC50 ([2]; 8-unsubstituted compounds): 700 nM

IC50 [1, 4]: 250 nM
SMILES: Nc1nc2c(Cc3cccc(C(F)(F)F)c3)c[nH]c2c(=O)[nH]1 [Example 2h, 2-Amino-3,5-dihydro-7-(3-trifluoromethylphenylmethyl)-4H-pyrrolo[3,2-d]pyrimidin-4-one]

IC50 [1, 4]: 1000 nM
SMILES: Nc1nc2c(Cc3ccc(Cl)c(Cl)c3)c[nH]c2c(=O)[nH]1 [Example 2i, 2-Amino-3,5-dihydro-7-(3,4-dichlorophenylmethyl)-4H-pyrrolo[3,2-d]pyrimidin-4-one]

SMILES: Nc1nc2c(Cc3ccco3)c[nH]c2c(=O)[nH]1 [Example 2j, 2-Amino-3,5-dihydro-7-(2-furanylmethyl)-4H-pyrrolo-[3,2-d]pyrimidin-4-one]
IC50 [1, 5]: 310 nM
IC50 ([2]; 8-unsubstituted compounds): 2300 nM

SMILES: Nc1nc2c(Cc3cccs3)c[nH]c2c(=O)[nH]1 [Example 2k, 2-Amino-3,5-dihydro-7-(2-thienylmethyl)-4H-pyrrolo-[3,2-d]pyrimidin-4-one]
IC50 ([2]; 8-unsubstituted compounds): 300 nM

SMILES: Nc1nc2c(Cc3ccsc3)c[nH]c2c(=O)[nH]1 [Example 2l, 2-Amino-3,5-dihydro-7-(3-thienylmethyl)-4H-pyrrolo-[3,2-d]pyrimidin-4-one]
IC50 [1, 5]: 80 nM
IC50 ([2]; 8-unsubstituted compounds): 2000 nM

IC50 [1, 4]: 2300 nM
SMILES: Nc1nc(O)c2[nH]cc(Cc3ccccc3Cl)c2n1 [Example 2m, 2-Amino-3,5-dihydro-7-(2-chlorophenylmethyl)-4H-pyrrolo[3,2-d]pyrimidin-4-one]

SMILES: Nc1nc2c(Cc3ccsc3)c(N)[nH]c2c(=O)[nH]1 [Example 3-Thienyl, reference compound]
IC50 [2, 6]: > 20000 nM

SMILES: Nc1nc2c(Cc3cccc(O)c3)c[nH]c2c(=O)[nH]1 [Example 3b, 2-amino-3,5-dihydro-7-(3-hydroxyphenylmethyl)-4H-pyrrolo[3,2-d]pyrimidin-4-one]
IC50 ([2]; 8-unsubstituted compounds): 1700 nM

IC50 [1, 4]: 1950 nM
SMILES: Nc1nc2c(Cc3ccccc3O)c[nH]c2c(=O)[nH]1 [Example 3c, 2-amino-3,5-dihydro-7-(2-hydroxyphenylmethyl)-4H-pyrrolo[3,2-d]pyrimidin-4-one]

SMILES: Nc1nc2c(Cc3ccccc3)c(N)[nH]c2c(=O)[nH]1 [Phenyl, reference compound]
IC50 [1]: 7700 nM
IC50 [2, 6]: > 15000 nM
